Columns and labels:
Conditions in all cases: 48 h
NOMO1 [1] = assay: cell viability relative to DMSO control; higher = less cytotoxic
Procedure, shortened: (§1)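 Viability was expressed as a per-plate percentage of DMSO wells, with cell-free wells as background. Leukemia cells (NOMO1 or SEM at 500 cells/well, P12-Ichikawa at 1000 cells/well) were adapted for at least four passages in each medium and seeded in 1536-well plates (5 μl). Library compounds in DMSO were pin-dosed over an 11-point threefold series from 47 μM to 0.79 nM, and CellTiter-Glo One luminescence was read after 48 h at 37°C.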

P12-Ichikawa [2] = assay: as above
Procedure, shortened: as §1

SEM cells [3] = assay: as above
Procedure, shortened: as §1

NOMO1 [4] = assay: AUC of viability dose-response curve (% viability x log10 dose units); higher = less sensitive
Procedure, shortened: (§2)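 Viability of medium-adapted leukemia cells was measured by CellTiter-Glo One luminescence after 48 h at 37°C with library compounds in DMSO. Doses were 11 threefold steps from 47 μM to 0.79 nM, in 1536-well plates at 500 or 1000 cells/well. Signals were normalised per plate to DMSO and cell-free wells and fitted with a four-parameter log-logistic model on log10 dose. Area under the curve was integrated by trapezoidal rule, with curves exceeding full viability scaled and failed quality-control curves removed.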

P12-Ichikawa [5] = assay: as above
Procedure, shortened: as §2

SEM cells [6] = assay: as above
Procedure, shortened: as §2

COc1cc[nH]c2ncc(C(=O)C(=O)N3CCN(C(=O)c4ccccc4)C[C@H]3C)c1-2
cell viability [%]
Conditions | NOMO1 [1] | P12-Ichikawa [2] | SEM cells [3]
HPLM + 10% dialyzed FBS, 0.000781 µM | 137 | 114 | 89.9
HPLM + 10% dialyzed FBS, 0.00234 µM | 121 | 112 | 87.6
HPLM + 10% dialyzed FBS, 0.00702 µM | 111 | 118 | 77.4
HPLM + 10% dialyzed FBS, 0.0211 µM | 105 | 111 | 90.1
HPLM + 10% dialyzed FBS, 0.0632 µM | 121 | 112 | 58.5
HPLM + 10% dialyzed FBS, 0.19 µM | 108 | 109 | 82.6
HPLM + 10% dialyzed FBS, 0.569 µM | 106 | 108 | 92
HPLM + 10% dialyzed FBS, 1.71 µM | 108 | 101 | 96.8
HPLM + 10% dialyzed FBS, 5.12 µM | 120 | 106 | 88.8
HPLM + 10% dialyzed FBS, 15.4 µM | 100 | 103 | 94.2
HPLM + 10% dialyzed FBS, 46.1 µM | 99.1 | 102 | 109
RPMI 5 mM glucose + 10% FBS, 0.000781 µM | 99.9 | 114 | 115
RPMI 5 mM glucose + 10% FBS, 0.00234 µM | 101 | 118 | 109
RPMI 5 mM glucose + 10% FBS, 0.00702 µM | 101 | 119 | 112
RPMI 5 mM glucose + 10% FBS, 0.0211 µM | 101 | 117 | 116
RPMI 5 mM glucose + 10% FBS, 0.0632 µM | 99 | 117 | 74.2
RPMI 5 mM glucose + 10% FBS, 0.19 µM | 99.2 | 117 | 100
RPMI 5 mM glucose + 10% FBS, 0.569 µM | 100 | 122 | 100
RPMI 5 mM glucose + 10% FBS, 1.71 µM | 99.1 | 111 | 103
RPMI 5 mM glucose + 10% FBS, 5.12 µM | 107 | 107 | 113
RPMI 5 mM glucose + 10% FBS, 15.4 µM | 105 | 111 | 99.9
RPMI 5 mM glucose + 10% FBS, 46.1 µM | 102 | 97.5 | 96.9
RPMI 5 mM glucose + 10% dialyzed FBS, 0.000781 µM | 109 | 105 | 118
RPMI 5 mM glucose + 10% dialyzed FBS, 0.00234 µM | 117 | 109 | 109
RPMI 5 mM glucose + 10% dialyzed FBS, 0.00702 µM | 114 | 96.9 | 129
RPMI 5 mM glucose + 10% dialyzed FBS, 0.0211 µM | 115 | 110 | 115
RPMI 5 mM glucose + 10% dialyzed FBS, 0.0632 µM | 119 | 101 | 84.4
RPMI 5 mM glucose + 10% dialyzed FBS, 0.19 µM | 108 | 99.1 | 102
RPMI 5 mM glucose + 10% dialyzed FBS, 0.569 µM | 108 | 116 | 107
RPMI 5 mM glucose + 10% dialyzed FBS, 1.71 µM | 105 | 103 | 101
RPMI 5 mM glucose + 10% dialyzed FBS, 5.12 µM | 99.2 | 99.4 | 102
RPMI 5 mM glucose + 10% dialyzed FBS, 15.4 µM | 103 | 99.5 | 103
RPMI 5 mM glucose + 10% dialyzed FBS, 46.1 µM | 91.9 | 103 | 106

AUC of viability dose-response curve
Conditions | NOMO1 [4] | P12-Ichikawa [5] | SEM cells [6]
HPLM + 10% dialyzed FBS | 389 | 455 | 419
RPMI 5 mM glucose + 10% FBS | 461 | 463 | 453
RPMI 5 mM glucose + 10% dialyzed FBS | 452 | 470 | 428

C[C@@H]1CCO[C@H]2CN\3/C=C(/C(=O)NCC4=C(F)C=C(F)C=C4)C(=O)\C(=C3C(=O)N12)O
cell viability [%]
Conditions | NOMO1 [1] | P12-Ichikawa [2] | SEM cells [3]
HPLM + 10% dialyzed FBS, 0.000781 µM | 107 | 108 | 82.2
HPLM + 10% dialyzed FBS, 0.00234 µM | 103 | 109 | 104
HPLM + 10% dialyzed FBS, 0.00702 µM | 117 | 103 | 85
HPLM + 10% dialyzed FBS, 0.0211 µM | 116 | 109 | 104
HPLM + 10% dialyzed FBS, 0.0632 µM | 109 | 106 | 73.4
HPLM + 10% dialyzed FBS, 0.19 µM | 109 | 105 | 91.6
HPLM + 10% dialyzed FBS, 0.569 µM | 101 | 103 | 105
HPLM + 10% dialyzed FBS, 1.71 µM | 90.6 | 96.5 | 103
HPLM + 10% dialyzed FBS, 5.12 µM | 105 | 103 | 104
HPLM + 10% dialyzed FBS, 15.4 µM | 102 | 104 | 91.5
HPLM + 10% dialyzed FBS, 46.1 µM | 108 | 93.5 | 85.3
RPMI 5 mM glucose + 10% FBS, 0.000781 µM | 87.6 | 99.3 | 100
RPMI 5 mM glucose + 10% FBS, 0.00234 µM | 91.1 | 99.5 | 95.2
RPMI 5 mM glucose + 10% FBS, 0.00702 µM | 110 | 106 | 99.6
RPMI 5 mM glucose + 10% FBS, 0.0211 µM | 88.7 | 105 | 98.5
RPMI 5 mM glucose + 10% FBS, 0.0632 µM | 92.6 | 101 | 44.4
RPMI 5 mM glucose + 10% FBS, 0.19 µM | 88.5 | 104 | 111
RPMI 5 mM glucose + 10% FBS, 0.569 µM | 84.5 | 111 | 104
RPMI 5 mM glucose + 10% FBS, 1.71 µM | 102 | 96.3 | 112
RPMI 5 mM glucose + 10% FBS, 5.12 µM | 86.3 | 93.9 | 107
RPMI 5 mM glucose + 10% FBS, 15.4 µM | 95.4 | 91.9 | 85.8
RPMI 5 mM glucose + 10% FBS, 46.1 µM | 93.9 | 74 | 88.1
RPMI 5 mM glucose + 10% dialyzed FBS, 0.000781 µM | 90.3 | 105 | 93.4
RPMI 5 mM glucose + 10% dialyzed FBS, 0.00234 µM | 82 | 97.1 | 98.7
RPMI 5 mM glucose + 10% dialyzed FBS, 0.00702 µM | 106 | 103 | 95.2
RPMI 5 mM glucose + 10% dialyzed FBS, 0.0211 µM | 96.9 | 97.9 | 96.3
RPMI 5 mM glucose + 10% dialyzed FBS, 0.0632 µM | 99.6 | 101 | 99.1
RPMI 5 mM glucose + 10% dialyzed FBS, 0.19 µM | 85.8 | 95.6 | 100
RPMI 5 mM glucose + 10% dialyzed FBS, 0.569 µM | 103 | 98.7 | 107
RPMI 5 mM glucose + 10% dialyzed FBS, 1.71 µM | 98.4 | 93.6 | 99.3
RPMI 5 mM glucose + 10% dialyzed FBS, 5.12 µM | 95.5 | 97.7 | 94.6
RPMI 5 mM glucose + 10% dialyzed FBS, 15.4 µM | 87.1 | 86.5 | 96.7
RPMI 5 mM glucose + 10% dialyzed FBS, 46.1 µM | 96.2 | 82.1 | 86.6

AUC of viability dose-response curve
Conditions | NOMO1 [4] | P12-Ichikawa [5] | SEM cells [6]
HPLM + 10% dialyzed FBS | 458 | 456 | 447
RPMI 5 mM glucose + 10% FBS | 442 | 460 | 454
RPMI 5 mM glucose + 10% dialyzed FBS | 452 | 459 | 465
